Data taken from PubChem BioAssay AID248 (DTP/NCI, 2004).
Where “and” joins values, the source holds several entries; their conditions need not be identical. Equal entries are not always repeated. Inconclusive results and toxic doses are left out. No stated cut-off is given here; in the data, active means T/C of 150% or more; inactive means T/C below 125%. Square brackets hold non-standard residues; d marks the D form. Peptide text beside a SMILES is read from it. * marks the point of attachment. ξ: configuration not given here. Cbz = O=C(OCc1ccccc1)*; OBn = c1ccc(CO*)cc1; ξP = O=C(O)C1CCCN1

Test system: L1210 leukemia ip in BDF1 mice, survival T/C
Assay: NCI In Vivo Anticancer Drug Screen. Data for tumor model L1210 Leukemia (intraperitoneal) in B6D2F1 (BDF1) mice
Conditions: endpoint: mean survival time, higher = longer survival
Outline: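 Each compound was tested against a transplantable tumor grown in mice. The endpoint was survival, with treated animals benchmarked against vehicle controls as a simple ratio.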

[1] = dose: 100.0 mg/kg/injection, schedule: Q04DX003 (ip), vehicle: Klucel (hydroxypropylcellulose) (HPC)
[2] = dose: 200.0 mg/kg/injection, schedule: Q04DX003 (ip), vehicle: Klucel (hydroxypropylcellulose) (HPC)
[3] = dose: 400.0 mg/kg/injection, schedule: Q04DX003 (ip), vehicle: Klucel (hydroxypropylcellulose) (HPC)
[4] = dose: 25.0 mg/kg/injection, schedule: Q04DX003 (ip), vehicle: saline with Tween-80
[5] = dose: 50.0 mg/kg/injection, schedule: Q04DX003 (ip), vehicle: saline with Tween-80
[6] = dose: 100.0 mg/kg/injection, schedule: Q01DX001 (ip), vehicle: saline with Tween-80
[7] = dose: 100.0 mg/kg/injection, schedule: Q04DX002 (ip), vehicle: saline with Tween-80
[8] = dose: 100.0 mg/kg/injection, schedule: Q04DX003 (ip), vehicle: saline with Tween-80
[9] = dose: 200.0 mg/kg/injection, schedule: Q01DX001 (ip), vehicle: saline with Tween-80
[10] = dose: 200.0 mg/kg/injection, schedule: Q04DX002 (ip), vehicle: saline with Tween-80
[11] = dose: 200.0 mg/kg/injection, schedule: Q04DX003 (ip), vehicle: saline with Tween-80
[12] = dose: 400.0 mg/kg/injection, schedule: Q01DX001 (ip), vehicle: saline with Tween-80
[13] = dose: 400.0 mg/kg/injection, schedule: Q04DX002 (ip), vehicle: saline with Tween-80
[14] = dose: 100.0 mg/kg/injection, schedule: Q04DX003 (ip), vehicle: saline
[15] = dose: 400.0 mg/kg/injection, schedule: Q04DX003 (ip), vehicle: saline with Tween-80
[16] = dose: 50.0 mg/kg/injection, schedule: Q01DX001 (ip), vehicle: saline
[17] = dose: 100.0 mg/kg/injection, schedule: Q01DX001 (ip), vehicle: saline
[18] = dose: 200.0 mg/kg/injection, schedule: Q01DX001 (ip), vehicle: saline
[19] = dose: 400.0 mg/kg/injection, schedule: Q01DX001 (ip), vehicle: saline
[20] = dose: 100.0 mg/kg/injection, schedule: Q01DX009 (ip), vehicle: acetone
[21] = dose: 200.0 mg/kg/injection, schedule: Q01DX009 (ip), vehicle: acetone
[22] = dose: 200.0 mg/kg/injection, schedule: Q04DX003 (ip), vehicle: saline
[23] = dose: 400.0 mg/kg/injection, schedule: Q04DX003 (ip), vehicle: saline

Measured: T/C

CC(C)OB(OC(C)C)OC(C)C
inactive: dose: 100.0 mg/kg/injection, schedule: Q01DX009 (ip), vehicle: Klucel (hydroxypropylcellulose) (HPC) 103 % of control | [1] 104 % of control | dose: 200.0 mg/kg/injection, schedule: Q01DX009 (ip), vehicle: Klucel (hydroxypropylcellulose) (HPC) 103 % of control | [2] 95 % of control | dose: 400.0 mg/kg/injection, schedule: Q01DX009 (ip), vehicle: Klucel (hydroxypropylcellulose) (HPC) 102 % of control | [3] 100 % of control

Cc1ccc(C(C)C)cc1NC(=O)/C=C/c1ccccc1
inactive: dose: 6.25 mg/kg/injection, schedule: Q01DX009 (ip), vehicle: saline with Tween-80 97 % of control and 98 % of control | dose: 12.5 mg/kg/injection, schedule: Q01DX009 (ip), vehicle: saline with Tween-80 97 % of control and 98 % of control | [4] 88 % of control | dose: 50.0 mg/kg/injection, schedule: Q01DX001 (ip), vehicle: saline with Tween-80 95 % of control | [5] 88 % of control | [6] 94 % of control | [7] 93 % of control and 96 % of control | [8] 88 % of control | [9] 86 % of control and 87 % of control | [10] 88 % of control and 90 % of control | [11] 89 % of control | [12] 94 % of control and 108 % of control | [13] 96 % of control and 88 % of control

O=C(/C(=C1\SS/C(=C(/C(=O)c2ccccc2)c2ccccc2)S1)c1ccccc1)c1ccccc1
inactive: dose: 100.0 mg/kg/injection, schedule: Q01DX001 (ip), vehicle: Klucel (hydroxypropylcellulose) (HPC) 114 % of control | [1] 100 % of control | dose: 200.0 mg/kg/injection, schedule: Q01DX001 (ip), vehicle: Klucel (hydroxypropylcellulose) (HPC) 108 % of control | [2] 97 % of control | dose: 400.0 mg/kg/injection, schedule: Q01DX001 (ip), vehicle: Klucel (hydroxypropylcellulose) (HPC) 104 % of control | [3] 94 % of control

c1cc[c]([Ge]([c]2ccccc2)([c]2ccccc2)[c]2cc[c]([Ge]([c]3ccccc3)([c]3ccccc3)[c]3ccccc3)cc2)cc1
inactive: [7] 97 % of control | [10] 87 % of control | [13] 91 % of control

CC(C)(C)C1=CC(=O)C(C#N)=C(C#N)C1=O
inactive: [14] 96 % of control

Oc1c(Br)cc(Br)cc1C=Nc1ccc(Cl)cc1.Oc1c(Br)cc(Br)cc1C=Nc1ccc(Cl)cc1.[Co]
inactive: [8] 98 % of control | [11] 103 % of control | [15] 98 % of control

Nc1nc2nn(-c3ccccc3)nc2c(=O)[nH]1
inactive: [8] 100 % of control | [11] 93 % of control | [15] 94 % of control

O=C1c2ccccc2C(=O)N1OCCCBr
inactive: [16] 96 % of control | [17] 102 % of control | [18] 102 % of control | [19] 102 % of control

O=S(=O)(O)C(O)c1ccccc1O (stereo unspecified)
inactive: [17] 100 % of control | [18] 103 % of control | [19] 102 % of control

O=[N+]([O-])c1ccc(N/N=C(/CCCCl)c2ccccc2)c([N+](=O)[O-])c1
inactive: [8] 96 % of control | [11] 95 % of control | [15] 91 % of control

Nc1ccc(Cl)cc1Br
inactive: dose: 50.0 mg/kg/injection, schedule: Q01DX009 (ip), vehicle: acetone 95 % of control | [20] 92 % of control | dose: 100.0 mg/kg/injection, schedule: Q04DX003 (ip), vehicle: acetone 96 % of control | [21] 90 % of control | dose: 200.0 mg/kg/injection, schedule: Q04DX003 (ip), vehicle: acetone 100 % of control | dose: 400.0 mg/kg/injection, schedule: Q04DX003 (ip), vehicle: acetone 96 % of control

CC1(C)C2CCC(CCO)C1C2 (stereo unspecified)
inactive: dose: 12.5 mg/kg/injection, schedule: Q04DX003 (ip), vehicle: saline with Tween-80 92 % of control | dose: 25.0 mg/kg/injection, schedule: Q01DX009 (ip), vehicle: saline 96 % of control | [4] 88 % of control | dose: 50.0 mg/kg/injection, schedule: Q01DX009 (ip), vehicle: saline 92 % of control | [5] 95 % of control | dose: 100.0 mg/kg/injection, schedule: Q01DX009 (ip), vehicle: saline 88 % of control | [8] 92 % of control

CN(C)C(=Nc1ccccc1)N(C)N
inactive: dose: 37.5 mg/kg/injection, schedule: Q04DX003 (ip), vehicle: saline 102 % of control | dose: 75.0 mg/kg/injection, schedule: Q04DX003 (ip), vehicle: saline 101 % of control | dose: 150.0 mg/kg/injection, schedule: Q04DX003 (ip), vehicle: saline 102 % of control

O=C1NC(c2ccccc2)(c2ccccc2)C(=O)N1CCCl
inactive: [20] 102 % of control | [14] 101 % of control | [21] 101 % of control | [22] 95 % of control | dose: 400.0 mg/kg/injection, schedule: Q01DX009 (ip), vehicle: acetone 104 % of control | [23] 110 % of control

CC(=O)c1ccc(N)cc1
inactive: dose: 100.0 mg/kg/injection, schedule: Q01DX009 (ip), vehicle: other 94 % of control | dose: 100.0 mg/kg/injection, schedule: Q04DX002 (ip), vehicle: other 100 % of control | dose: 200.0 mg/kg/injection, schedule: Q01DX009 (ip), vehicle: other 102 % of control | dose: 200.0 mg/kg/injection, schedule: Q04DX002 (ip), vehicle: other 117 % of control | dose: 400.0 mg/kg/injection, schedule: Q04DX002 (ip), vehicle: other 114 % of control

O=C(OCCNC(=O)N1CCOCC1)OCCNC(=O)N1CCOCC1
inactive: [14] 100 % of control | [22] 100 % of control | [23] 106 % of control

Clc1ccc(C2=Nc3c(Cl)ncnc3SC2)cc1
inactive: [6] 106 % of control | dose: 100.0 mg/kg/injection, schedule: Q01DX009 (ip), vehicle: saline with Tween-80 94 % of control | [9] 101 % of control | dose: 200.0 mg/kg/injection, schedule: Q01DX009 (ip), vehicle: saline with Tween-80 99 % of control | [12] 98 % of control | dose: 400.0 mg/kg/injection, schedule: Q01DX009 (ip), vehicle: saline with Tween-80 94 % of control

O=C(CCCC(=O)N/N=C/c1ccc2c(c1)OCO2)N/N=C\c1ccc2c(c1)OCO2
inactive: [16] 103 % of control | [17] 103 % of control | [18] 106 % of control | [19] 100 % of control

O=C(NCC(=O)N1CCCC1C(=O)OCc1ccccc1)OCc1ccccc1 (stereo not drawn) (Cbz-Gly-[ξP]-OBn)
inactive: [1] 106 % of control | [2] 106 % of control | [3] 102 % of control

Cn1cc(C2Cc3ccccc3NC3=C2C(=O)CC(C)(C)C3)c2ccccc21 (stereo unspecified)
inactive: dose: 100.0 mg/kg/injection, schedule: Q01DX001 (ip), vehicle: other 103 % of control | dose: 200.0 mg/kg/injection, schedule: Q01DX001 (ip), vehicle: other 92 % of control | dose: 400.0 mg/kg/injection, schedule: Q01DX001 (ip), vehicle: other 86 % of control
